Assay results from patent US10092530B2, “Method for inhibiting melanogenesis and promoting collagen production and wound healing” (TCI Co., Ltd, priority 2015, dated 2018).

Experiments:
Assay type in all cases: cell-based
MMP-9 gene expression = MMP-9 gene expression by RT-PCR in human dermal fibroblasts; settings: 1X-24 group: 8.75 ng/mL, 24 hours
Experimental: (§1) Human dermal fibroblasts (CCD-966SK cells, former ATCC CRL-1881), a type of adherent skin cells, were cultured in minimum essential medium supplemented with 10% (v/v) fetal bovine serum (FBS), 0.37% (w/v) sodium bicarbonate, 0.1 mM non-essential amino acid solution (NEAA), 1 mM sodium pyruvate, 0.03% (w/v) […], 100 units/ml penicillin and 100 μg/ml streptomycin at 37° C. under humidified atmosphere (relative humidity of 80%) containing 5% CO2. During the culture, the medium was renewed every two days. When the cultured cells reached confluence and formed a monolayer, which was examined by an inverted microscope, a subculture was carried out.
Therefore, the inventors of the present application studied the inhibitory effect of the compound of formula (I) on MMP-9 gene expression in EXAMPLE 2. […]

human dermal fibroblasts [1] = assay: Collagen secretion assay (Sircol) in human dermal fibroblasts; settings: for increase in collagen secretion compared with the CTL group: 24 hours
MITF gene expression = MITF gene expression by RT-PCR in human dermal fibroblasts; settings: 2X-48 group: 17.5 ng/mL, 48 hours
Experimental: as §1
Therefore, the inventors of the present application studied the inhibitory effect of the compound of formula (I) on MITF gene expression in EXAMPLE 3. […]

[2] = system: mouse melanoma cell line B16F10; assay: Melanin quantification assay in mouse melanoma cell line B16F10; settings: for decreased melanin content compared with the CTL group: 48 hours, B16F10
Experimental: Therefore, the inventors of the present application studied the inhibitory effect of the compound of formula (I) on MITF gene expression in EXAMPLE 3. The following five groups were compared in this example: • (1) Control group (CTL group): incubating a culture of human dermal fibroblasts for a predetermined time; • (2) One dose-24 hours group (1X-24 group): adding one dose of the compound of the present invention to a culture of human dermal fibroblasts and then examining the culture after an incubation of 24 hours, wherein the term “one dose” refers to 8.75 ng/mL of the compound of formula (I) in DMSO; • (3) One dose-48 hours group (1X-48 group): adding one dose of the compound of the present invention to a culture of human dermal fibroblasts and then examining the culture after an incubation of 48 hours; • (4) Double dose-24 hours group (2X-24 group): adding a double dose of the compound of the present invention to a culture of human dermal fibroblasts and then examining the culture after an incubation of 24 hours, wherein the term “double dose” refers to 17.5 ng/mL of the compound of formula (I); and • (5) Double dose-48 hours group (2X-48 group): adding a double dose of the compound of the present invention to a culture of human dermal fibroblasts and then examining the culture after an incubation of 48 hours.
In addition, a melanin quantification assay was performed to examine the change of melanin content in mouse melanoma cell line B16F10 (ATCC CRL-6475) upon addition of the compound of the present invention. The treatment of the cells was the same as described above. […] Thus, it is concluded that the compound at a concentration between 8 ng/ml and 18 ng/ml causes a decrease of at least 20% in melanin formation in mouse melanoma cells.

human dermal fibroblasts [3] = assay: Wound repair/closure of an incised wound area in a culture of human dermal fibroblasts; settings: for percentage of wound repair/closure relative to the CTL group: 18 hours
Experimental: as §1
Due to the importance of wound healing, the inventors of the present application studied the promoting effect of the compound of formula (I) on wound healing of skin in EXAMPLE 4. The following four groups were compared in this example: • (1) Control group (CTL group): creating an incised wound area in a culture of human dermal fibroblasts and then incubating and examining the culture for 18 hours; • (2) One dose-18 hours group (1X-18 group): creating an incised wound area in a culture of human dermal fibroblasts and adding one dose of the compound of the present invention to the culture; and then examining changes in the wound area of human dermal fibroblasts after an incubation of 18 hours, wherein the term “one dose” refers to 8.75 ng/mL of the compound of formula (I) in DMSO; • (3) Double dose-18 hours group (2X-18 group): creating an incised wound area in a culture of human dermal fibroblasts and adding one dose of the compound of the present invention to the culture; and then examining changes in the wound area of human dermal fibroblasts after an incubation of 18 hours, wherein the term “double dose” refers to 17.5 ng/mL of the compound of formula (I); and • (4) Fourfold dose-18 hours group (4X-18 group): creating an incised wound area in a culture of human dermal fibroblasts and adding one dose of the compound of the present invention to the culture; and then examining changes in the wound area of human dermal fibroblasts after an incubation of 18 hours, wherein the term “fourfold dose” refers to 35 ng/mL of the compound of formula (I).
According to FIG. 8, a constant number of fibrocytes (about 1-2×10^5 cells) were produced in each of the CTL, 1X-18, 2X-18, and 4X-18 groups to repair and close the wound at 18 hours after wounding.
In addition, a percentage of wound repair/closure in the wound area of human dermal fibroblasts was determined for the above four groups by analyzing the surface area change of the wound area in FIG. 8 using the software ImageJ. […]

C=C1CC[C@@H](C)C2C[C@@H](O)[C@@H](C(C)C(=O)O)CC12 (stereo partly drawn) [compound of formula (I)]
inhibition of MMP-9 gene expression compared with the CTL group (MMP-9 gene expression): about 80%
increase in collagen secretion compared with the CTL group (human dermal fibroblasts [1]; 1X-24 group: 8.75 ng/mL): 20%
increase in collagen secretion compared with the CTL group (human dermal fibroblasts [1]; 2X-24 group: 17.5 ng/mL): 30%
increase in collagen secretion (human dermal fibroblasts [1]; concentration between 8 ng/ml and 18 ng/ml): at least 20%
inhibition of MITF gene expression compared with the CTL group (MITF gene expression): about 50%
decreased melanin content compared with the CTL group ([2]; 1X-48 group: 8.75 ng/mL): 20%
decreased melanin content compared with the CTL group ([2]; 2X-48 group: 17.5 ng/mL): 40%
decrease in melanin formation ([2]; concentration between 8 ng/ml and 18 ng/ml, mouse melanoma cells): at least 20%
degree of repair/closure in the wound area compared with the CTL group (micrographs) (human dermal fibroblasts [3]; 1X-18, 2X-18 and 4X-18 groups (8.75, 17.5, 35 ng/mL), 18 hours after wounding): significantly higher degree of repair/closure
percentage of wound repair/closure relative to the CTL group (human dermal fibroblasts [3]; 1X-18 group: 8.75 ng/mL): 1.21 fold
percentage of wound repair/closure relative to the CTL group (human dermal fibroblasts [3]; 2X-18 group: 17.5 ng/mL): 1.4 fold
percentage of wound repair/closure relative to the CTL group (human dermal fibroblasts [3]; 4X-18 group: 35 ng/mL): 1.5 fold
